For one data set, the target named is T1, MDM2 (Homo sapiens, UniProt Q00987).
T1 construct: ubiquitination of endogenous MDM2 in EU-1 cells; endogenous in cells; host or cells: EU-1 (ALL) cells
The data set is described as follows: MDM2 reduction / expression (Western blot). The class given is cell-based. The note with it: words or +/− grades, key not given. How it is done:
(§1) Cells were lysed in a buffer composed of 50 mM Tris, pH 7.6, 150 mM NaCl, 1% Nonidet P-40, 10 mM sodium phosphate, 10 mM NaF, 1 mM sodium orthovanadate, 2 mM phenylmethylsulfonyl fluoride (PMSF), […], 10 μg/mL leupeptin and 10 μg/mL pepstatin. After centrifugation, the clarified cell lysate was separated from the pellet of cell debris, and then incubated with 15 μL Protein G/Protein A-agarose and 1 μg of antibodies, overnight at 4° C. For the Western blot, the resulting cell lysates or immunoprecipitates were resolved by SDS-PAGE. They were then transferred to a nitrocellulose filter and probed with the specific antibodies as listed in the supplemental Materials section. Finally, proteins were visualized with a chemiluminescent detection system.

The next data set concerns XIAP. The experiment in a line: XIAP inhibition / expression (Western blot). The class given is cell-based. The note with it: MDM2 reduction. The procedure:
as §1
In general terms: In western blotting, separated proteins are transferred to a membrane and probed.

The next data set concerns EU-1. The data set is described as follows: WST cytotoxicity assay, cancer cell EU-1. Format: cell-based, human. The note with it: Homo sapiens, EU-1, EU-1; no other cell line named in the cell; read-out: Cancer cell (EU-1) cytotoxicity IC50. In a few lines: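 Pediatric ALL and NB lines grown in RPMI 1640 with 10% FBS at 37 °C, 5% CO2. Cells were exposed to a range of compound concentrations for 20 h, then WST (25 μg/well) was added for a further 4 h. OD read at 450 nm against a 620 nm reference.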

Another data set deals with p53. The experiment in a line: p53 induction / expression (Western blot). The note with it: words or +/− grades, key not given. Format: cell-based. How it is done:
as §1

The test system of another data set is NB-1643. The experiment in a line: WST cytotoxicity assay, NB-1643. The note with it: Homo sapiens; NB-1643 line; read-out: Cancer cell cytotoxicity IC50. The class given is cell-based. How it is done: This study used two ALL cell lines (EU-1 and EU-3) and three NB cell lines (NB-1643, SHEP1 and LA1-55N). All 5 cancer cell lines were established from pediatric ALL or NB patients and were well-characterized for their expression of MDM2 and p53-status, as reported previously. All cell lines were grown in standard culture medium (RPMI 1640 containing 10% FBS, 2 mmol/L L-glutamine, 50 U penicillin and 50 μg/mL streptomycin) at 37° C. in a humidified atmosphere containing 5% CO2.
(§2) The cytotoxic effect of MX 69 and MX69 analogs on cancer cells was determined using the water-soluble tetrazolium salt (WST) assay. Briefly, cells cultured in 96-well microtiter plates were treated with different concentrations of AQ-101 for a 20-h period. WST (25 μg/well) was then added and incubation continued for an additional 4 h, after which optical density (OD) was read with a microplate reader (test wavelength of 450 nm; reference wavelength of 620 nm).

A further data set concerns 855 line. The data set is described as follows: WST cytotoxicity assay, 855 line. Format: cell-based. The note with it: read-out: Cancer cell cytotoxicity IC50. The procedure:
as §2

The next data set relates to caspases-3, -9 and PARP. The data set is described as follows: Western blot, cleavage of caspases-3, -9 and PARP in EU-1 cells. The class given is cell-based. The procedure: as §1
Another data set has as its system 697 cell line. The data set is described as follows: WST cytotoxicity assay, 697 cell line. The class given is cell-based. The note with it: read-out: Cancer cell cytotoxicity IC50. How it is done: as §2
The test system of data set [1] is human normal bone marrow mononuclear (NBMM) cells. The experiment in a line: Clonogenic assay for CFU-GM and BFU-E (normal hematopoiesis). Format: cell-based. The note with it: 1 μM, 14 days. How it is done: For colony formation of normal human hematopoiesis assay, a bottom layer of low-melting-point, 0.5% agarose (in RPMI 1640 medium plus 10% FBS) was poured into gridded 35 mm dishes and allowed to gel. Cells were cultured in a top layer of 0.35% agarose/medium at 37° C. in a humidified atmosphere containing 5% CO2. After 2-3 weeks, cultures were fixed with formalin and colonies scored.

The nature of a further data set: in vivo. The note with it: mouse.
Another data set concerns normal cells/tissues. The note with it: Gu et al. Cancer Cell 2016; cited from earlier work.
For data set [2], the target named is T2, MDM2 RING protein (Homo sapiens, UniProt Q00987). The note with it: Gu et al. Cancer Cell 2016; cited from earlier work.
The target of data set [3] is T2, MDM2 RING protein. The data set is described as follows: Compound-protein binding (ITC) to MDM2 RING protein. The note with it: MDM2 RING domain. How it is done: Isothermal titration calorimetry (ITC) assay was performed using the auto-iTC200 instrument (MicroCal, GE). MDM2 protein was loaded into a 96 DeepWell PP plate, and then compound was titrated stepwise into the protein sample cell using a syringe, for a total of 16 injections (except for the first injection, which was 0.4 μl). The equilibrium time between two adjacent injections was 210 s. The binding stoichiometry (n), binding constant (Kd), and thermodynamic parameters (ΔH and ΔS) were determined by fitting the titration curve to a one-site binding mode, using the Origin software provided by the manufacturer.

Some results are limits rather than exact numbers.

T1 sequence (Q00987 whole entry): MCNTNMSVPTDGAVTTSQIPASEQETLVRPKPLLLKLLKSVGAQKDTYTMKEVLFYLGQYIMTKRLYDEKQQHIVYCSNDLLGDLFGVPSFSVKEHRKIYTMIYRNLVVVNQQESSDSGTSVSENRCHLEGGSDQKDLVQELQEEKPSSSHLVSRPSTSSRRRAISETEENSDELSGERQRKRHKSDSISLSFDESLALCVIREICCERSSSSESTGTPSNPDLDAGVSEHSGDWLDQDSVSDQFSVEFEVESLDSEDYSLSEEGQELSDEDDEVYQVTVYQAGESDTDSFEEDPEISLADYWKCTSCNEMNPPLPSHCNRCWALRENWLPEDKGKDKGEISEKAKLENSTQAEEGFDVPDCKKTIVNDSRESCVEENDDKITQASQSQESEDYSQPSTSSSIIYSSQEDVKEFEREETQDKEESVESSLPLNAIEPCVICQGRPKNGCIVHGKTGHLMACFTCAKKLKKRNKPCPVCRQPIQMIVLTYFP
T2 sequence (Q00987 438-479 limits assumed): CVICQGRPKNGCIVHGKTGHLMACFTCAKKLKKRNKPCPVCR

The IC50 is the concentration at which inhibition is half-maximal. For `Cc1ccc(NS(=O)(=O)c2ccc3c(c2)C(=O)C[C@@H](c2ccc(C(=O)C(C)C)cc2)N3)cc1C` (stereo in doubt) [Compound 69L84, N-(3,4-dimethylphenyl)-2-(4-isobutyrylphenyl)-4-oxo-1,2,3,4-tetrahydroquinoline-6-sulfonamide], the MDM2 reduction entry at MDM2 was “inhibition”. In addition, in the data set with XIAP, the XIAP inhibition entry is “inhibition”. Also, the IC50 with EU-1 fell in the range of 200 to 600 nM. Besides, in the data set with p53, the p53 induction result is “activation”.

Take `Cc1ccc(NS(=O)(=O)c2ccc3c(c2)C2OCC[C@H]2[C@H](C2CCOCC2)N3)cc1C` (some centres unmarked) [Compound 69L58, N-(3,4-dimethylphenyl)-4-(tetrahydro-2H-pyran-4-yl)-2,3,3a,4,5,9b-hexahydrofuran[3,2-c]quinolone-8-sulfonamine]: the IC50 amounted to 2630 nM with NB-1643 and 1610 nM in the data set on 855 line. The MDM2 reduction result at MDM2 is “inhibition”. Besides, in the data set with p53, the p53 induction result is listed as “induction”.

For `Cc1ccc(NS(=O)(=O)c2ccc3c(c2)[C@H]2NCC[C@H]2[C@@H](c2ccc(C(=O)C(C)C)cc2)N3)cc1C` [Compound 69L81], the MDM2 reduction result at MDM2 is listed as “inhibition”. Further, the XIAP inhibition entry with XIAP is recorded as “inhibition”. In addition, the IC50 in the data set with EU-1 was 3200 nM. Also, the p53 induction entry in the data set with p53 is “inhibition”.

`Cc1ccc(NS(=O)(=O)c2ccc3c(c2)C2OCCC2C(c2ccc(C(=O)C(C)C)cc2)N3)cc1C` (centres unmarked) [McX69-102]: the “Time after treatment at which cleavage of caspases-3, -9 and PARP can be detected” value with caspases-3, -9 and PARP is 8 h.

On to `Cc1ccc(NS(=O)(=O)c2ccc3c(c2)C(=O)CC(c2cccc(C(=O)C(C)C)c2)N3)cc1C` (centres unmarked) [Compound 69L114, N-(3,4-dimethylphenyl)-2-(3-isobutyrylphenyl)-4-oxo-1,2,3,4-tetrahydroquinoline-6-sulfonamide], for which the MDM2 reduction entry at MDM2 is listed as “inhibition”. Besides, in the data set with XIAP, the XIAP inhibition result was “inhibition”. In addition, the IC50 with EU-1 is less than 100 nM.

For `CC(=O)c1cccc(NS(=O)(=O)c2ccc3c(c2)[C@H]2OCC[C@H]2C(c2ccc(C(=O)C(C)C)cc2)N3)c1` (stereo in doubt) [Compound 69L102, N-(3-acetylphenyl)-4-(4-isobutyrylphenyl)-2,3,3a,4,5,9b-hexahydrofuro[3,2-c]quinoline-8-sulfonamide], on MDM2, the MDM2 reduction entry is reported as “inhibition”. Moreover, the XIAP inhibition entry in the data set with XIAP was “inhibition”. Further, in the data set on EU-1, the IC50 stood at 230 nM.

In the case of `CC(=O)c1ccc(C2Nc3ccc(S(=O)(=O)Nc4ccc(C)c(C)c4)cc3[C@H]3OCC[C@@H]23)cc1` (some centres unmarked) [Compound 69L38], the IC50 in the data set with NB-1643 amounted to 1820 nM; in the data set with 855 line, 490 nM. The MDM2 reduction result at MDM2 is “No MDM2”.

As to `CC(=O)c1cccc(NS(=O)(=O)c2ccc3c(c2)C(=O)CC(c2ccc(C(=O)C(C)C)cc2)N3)c1` (centres unmarked) [Compound 69L113, N-(3-acetylphenyl)-2-(4-isobutyrylphenyl)-4-oxo-1,2,3,4-tetrahydro-quinoline-6-sulfonamide], the MDM2 reduction result at MDM2 is on record as “inhibition”. For the same compound, the XIAP inhibition entry with XIAP is “inhibition”. Besides, in the data set on EU-1, the IC50 is less than 100 nM.

As for `O=S(=O)(Nc1ccc(Cl)c(Cl)c1)c1ccc2c(c1)C1OCC[C@H]1[C@H](C1CCCCC1)N2` (some centres unmarked) [Compound 69L60, 4-cyclohexyl-N-(3,4-dichlorophenyl)-2,3,3a,4,5,9b-hexahydrofuran[3,2-c]quinolone-8-sulfonamine], the results for the IC50 in the data set on NB-1643, with 855 line and in the data set on 697 cell line were 5650 nM, 1810 nM and 2730 nM, respectively. Besides, the MDM2 reduction entry at MDM2 is on record as “Increase”.

Regarding `O=S(=O)(Nc1ccc2c(c1)CCCC2)c1ccc2c(c1)C1OCC[C@H]1[C@H](C1CCCCC1)N2` (some centres unmarked) [Compound 69L59, 4-cyclohexyl-N-(5,6,7,8-tetrahydronaphthalen-2-yl)-2,3,3a,4,5,9b-hexahydrofuran[3,2-c]quinolone-8-sulfonamine], the figures for the IC50 with NB-1643 and with 855 line were 3090 nM and 2310 nM, respectively. Further, at MDM2, the MDM2 reduction result is “No MDM2”.

On to `Cc1ccc(NS(=O)(=O)c2ccc3c(c2)C2OCC[C@H]2C(c2cccc4ccccc24)N3)cc1C` (some centres unmarked) [Compound 69L63], for which the IC50 in the data set with 855 line turned out to be 6070 nM; with 697 cell line, 3940 nM. Further, the p53 induction entry in the data set on p53 is “induction”.

`Cc1ccc(NS(=O)(=O)c2ccc3c(c2)C2OCC[C@H]2[C@H](C2CCN(C(=O)OC(C)(C)C)CC2)N3)cc1C` (some centres unmarked) [Compound 69L64]: the IC50 in the data set with 855 line was 1350 nM; in the data set with 697 cell line, 280 nM. Moreover, the p53 induction result with p53 was “induction”.

Regarding `COc1cccc2c1C(=O)c1c(O)c3c(c(O)c1C2=O)C[C@@](O)(C(=O)CO)C[C@@H]3O[C@H]1C[C@H](N)[C@H](O)[C@H](C)O1` [Dox, doxorubicin], in data set [1], the “BFU-E colony numbers and size” value is “significantly reduced”; the “CFU-GM colony numbers and size” value is recorded as “significantly reduced”.

Consider `Cc1ccc(NS(=O)(=O)c2ccc3c(c2)[C@H]2C=CC[C@H]2[C@H](c2ccc(C(=O)O)cc2)N3)cc1C` [MX69, reference compound], for which the IC50 in the data set with EU-1 is 7000 nM. For the same compound, the MTD in the data set “in vivo” is 200 mg/kg. Besides, the “Toxicity on normal cells/tissues” value in the data set with normal cells/tissues is on record as “minimal toxicity”. The “Binding to the RING domain of MDM2” value on MDM2 RING protein [2] is on record as “specifically binds to the RING domain of MDM2”.

For `Cc1ccc(NS(=O)(=O)c2ccc3c(c2)C2OCC[C@H]2[C@H](C2CCCCC2)N3)cc1C` (some centres unmarked) [Compound 69L53, 4-cyclohexyl-N-(3,4-dimethylphenyl)-2,3,3a,4,5,9b-hexahydrofuran[3,2-c]quinolone-8-sulfonamine], the IC50 with NB-1643 worked out at 1730 nM; with 855 line, 800 nM. On MDM2 RING protein [3], the “MDM2 binding affinity as compared with MX69” value is “Increased MDM2 Binding Affinity”. On MDM2, the MDM2 reduction entry is recorded as “inhibition”. This compound also displayed an MTD in the data set “in vivo” of 300 mg/kg. For the same compound, the p53 induction entry in the data set on p53 is recorded as “induction”.

As for `COC(=O)c1ccc([C@H]2CC(O)c3cc(S(=O)(=O)Nc4ccc(C)c(C)c4)ccc3N2)cc1` (some centres unmarked) [Compound 69L39], the IC50 in the data set on NB-1643 stood at 1610 nM; in the data set with 855 line it was 680 nM. Moreover, the MDM2 reduction entry at MDM2 is listed as “No MDM2”.

In the case of `Cc1ccc(NS(=O)(=O)c2ccc3c(c2)C2OCC[C@H]2C2(CCCCC2)N3)cc1C` (some centres unmarked) [Compound 69L62], the IC50 was found to be 1300 nM in the data set on NB-1643, 980 nM in the data set with 855 line and 490 nM with 697 cell line. Further, the MDM2 reduction entry at MDM2 is listed as “No MDM2”.

On to `COC(=O)c1ccc(C2Nc3ccc(S(=O)(=O)Nc4ccc(C)c(C)c4)cc3[C@H]3OCC[C@@H]23)cc1` (some centres unmarked) [Compound 69L1], for which the IC50 in the data set on EU-1 is 1500 to 6000 nM. This compound yielded an MTD in “in vivo” of 300 mg/kg.
